Biological target: T1, Recombinant autotaxin (Homo sapiens, UniProt Q13822)
T1 construct: made in house; host or cells: Hi5 insect cells (baculovirus)
Experiment: Autotaxin assay (Amplex Red, LPC substrate)
Type: biochemical
Details: % of control at 1E−05 (compound concentration); uninhibited control = 100%
Experimental: Autotaxin activity is measured indirectly by means of Amplex Red Reagent. In this course, Amplex Red is measured as fluorogenic indicator for generated H2O2. Autotaxin converts substrate lysophosphatidylcholine (LPC) to phosphocholine and lysophosphatidylic acid (LPA). After the conversion phosphocholine is reacted with alkaline phosphatase to obtain inorganic phosphate and choline. During the next step choline is oxidized with choline oxidase to yield betaine, whereby H2O2 is generated. H2O2 reacts with Amplex Red Reagent in the presence of peroxidase (Horseradish peroxidase) in an 1:1 stochiometry and yields highly fluorescent resorufin. The generated fluorescence is measured in a reaction-dependent kinetic mode in order to enable subtraction of fluorescence signals of possible other fluorescent compounds that are not part of the reaction from total measured fluorescence.
1.5 μl of a standard solution or of the compounds of the invention are dissolved in 20 mM Hepes pH 7.2 with maximally 7.7% DMSO in individual concentrations. The resulting solution is pre-incubated together with 10 μl (16 ng) of highly purified recombinant autotaxin in a black 384-hole microtiter plate for 30 min at 22° C.
Thereafter, the reaction is started through the addition of 5 μL-a-lysophosphatidyl-choline (LPC), whereby the final concentration of LPC is 75 μM. The mixture is incubated for 90 min. at 37° C. After the incubation Amplex Red Reagent, peroxidase (Horseradish peroxidase) and choline oxidase are added. The fluorescence is immediately measured at a wavelength of 612 nm with an excitation wavelength of 485 nm in a “Tecan Ultra multimode” fluorescence reader. The activity of autotaxin is indirectly calculated via the amount of detected generated H2O2.
For IC50 analysis, ten serial 1:3 dilutions starting at 30 μM for each compound were run in duplicates.
IC50 values were calculated on normalized data. For normalization, control wells were added to each assay plate and the signal of uninhibited control wells was set to 100%, whereas the signal inhibited by 500 μM C14 LPA, (Avanti Polar Lipids, Cat#857120P) was set to 0%. Curves were fitted and IC50 values calculated by the following model using proprietory analysis software: Y=Bottom+(100−Bottom)/(1+10^((Log IC50−X)*HillSlope)) Where X is the logarithm of concentration. Y is the response; Y starts at Bottom and goes to Top with a sigmoid shape. Material
Microtiter plate: PS-Microplate, 384-hole, small volume, black Corning, Cat#3677
Protein: Recombinant autotaxin (baculoviral Hi5 expression)
Substrate: L-a-lysophosphatidyl choline (chicken egg); Avanti Polar Lipids #830071P
Standard: C14 LPA, Avanti Polar Lipids, Cat#857120P
Detection Reagent: Amplex Red Reagent; Invitrogen #A12222; dissolved in 1.923 ml of DMSO peroxidase Type VI-A (horseradish), Sigma #P6782; dissolved in 7.45 ml of test buffer, Choline Oxidase; Sigma #C5896; dissolved in 2.47 ml test buffer
Detection Reagent Mix: 1:100 dilution of Amplex Red Regent in test buffer
Test buffer: 200 mM Tris-HCl, Merck, Cat #1.08219, pH 7.9; 0.1% BSA, lipid free, Roche Cat#775835

% CTRL (1E−05)	Structure (SMILES)
89%	CS(=O)(=O)c1ccc(CCC(=O)N2CCC(N3CCN(C(=O)c4ccc5[nH]nnc5c4)CC3)CC2)cc1 [Compound 88, 1-{4-[4-(1H-Benzotriazole-5-carbonyl)-piperazin-1-yl]-piperidin-1-yl}-3-(4-methanesulfonyl-phenyl)-propan-1-one]

Same assay, conditions: recombinant autotaxin, LPC substrate, Amplex Red detection; values given as upper bounds

Structure (SMILES)	IC50
O=C(CCc1ccc(Cl)cc1F)N1CCN(C2CCN(C(=O)c3ccc4[nH]c(=O)oc4c3)CC2)CC1 [Compound 64, 6-(4-{4-[3-(4-Chloro-2-fluoro-phenyl)-propionyl]-piperazin-1-yl}-piperidine-1-carbonyl)-3H-benzooxazol-2-one]	< 10 µM
O=C(Nc1ccc2[nH]c(=O)oc2c1)c1cncc(N2CCN(C(=O)OCc3ccc(Cl)cc3)CC2)c1 [Compound 5, 4-[5-(2-Oxo-2,3-dihydro-benzooxazol-6-ylcarbamoyl)-pyridin-3-yl]-piperazine-1-carboxylic acid 4-chloro-benzyl ester]	< 10 µM
Nc1n[nH]c2ccc(C(=O)N3CCN(C4CCN(C(=O)OCc5ccc(C(F)(F)F)cc5)CC4)CC3)cc12 [Compound 112, 4-[4-(3-Amino-1H-indazole-5-carbonyl)-piperazin-1-yl]-piperidine-1-carboxylic acid 4-trifluoromethyl-benzyl ester]	< 10 µM
O=C(OCc1cc(Cl)c(F)c(Cl)c1)N1CCN(C2CCN(C(=O)c3ccc4[nH]nnc4c3)CC2)CC1 [Compound 97, 4-[1-(1H-Benzotriazole-5-carbonyl)-piperidin-4-yl]-piperazine-1-carboxylic acid 3,5-dichloro-4-fluoro-benzyl ester]	< 1 µM
Cc1nc(-c2ccc(Cl)cc2)sc1COC(=O)N1CCN(C2CCN(C(=O)c3ccc4[nH]nnc4c3)CC2)CC1 [Compound 174, 4-[1-(1H-Benzotriazole-5-carbonyl)-piperidin-4-yl]-piperazine-1-carboxylic acid 2-(4-chloro-phenyl)-4-methyl-thiazol-5-ylmethyl ester]	< 10 µM
O=C(OCc1ccc(OC(F)(F)F)cc1)N1CCN(C2CCN(C(=O)c3ccc4[nH]nnc4c3)CC2)CC1 [Compound 47, 4-[1-(1H-Benzotriazole-5-carbonyl)-piperidin-4-yl]-piperazine-1-carboxylic acid 4-trifluoromethoxy-benzyl ester]	< 1 µM
O=C(NC1CCN(C2CCN(C(=O)OCc3ccc(Cl)cc3)CC2)C1)c1ccc2[nH]nnc2c1 (stereo not shown) [Compound 7, 4-{3-[(1H-Benzotriazole-5-carbonyl)-amino]-pyrrolidin-1-yl}-piperidine-1-carboxylic acid 4-chloro-benzyl ester]	< 10 µM
O=C(OCc1cc(Cl)cc(Br)c1)N1CCN(C2CCN(C(=O)c3ccc4[nH]nnc4c3)CC2)CC1 [Compound 146, 4-[1-(1H-Benzotriazole-5-carbonyl)-piperidin-4-yl]-piperazine-1-carboxylic acid 3-bromo-5-chloro-benzyl ester]	< 1 µM
CSc1ccc(COC(=O)N2CCN(C3CCN(C(=O)c4ccc5[nH]nnc5c4)CC3)CC2)cc1 [Compound 149, 4-[1-(1H-Benzotriazole-5-carbonyl)-piperidin-4-yl]-piperazine-1-carboxylic acid 4-methylsulfanyl-benzyl ester]	< 10 µM
O=C(OCc1ccccc1Cl)N1CCN(C2CCN(C(=O)c3ccc4[nH]nnc4c3)CC2)CC1 [Compound 39, 4-[1-(1H-Benzotriazole-5-carbonyl)-piperidin-4-yl]-piperazine-1-carboxylic acid 2-chloro-benzyl ester]	< 10 µM
O=C(OCc1ccc(C(F)(F)F)cc1)N1CCN(CC2CCN(C(=O)c3ccc4[nH]nnc4c3)CC2)CC1 [Compound 109, 4-[1-(1H-Benzotriazole-5-carbonyl)-piperidin-4-ylmethyl]-piperazine-1-carboxylic acid 4-trifluoromethyl-benzyl ester]	< 10 µM
O=C(Cc1ccc(Cl)cc1)N1CCC(C2CCN(C(=O)c3ccc4[nH]nnc4c3)CC2)CC1 [Compound 23, 1-[1′-(1H-Benzotriazole-5-carbonyl)-[4,4′]bipiperidinyl-1-yl]-2-(4-chloro-phenyl)-ethanone]	< 30 µM
Cc1ccc(-c2ccccc2C(=O)N2CCC(C3CCN(C(=O)c4ccc5[nH]nnc5c4)CC3)CC2)cc1 [Compound 11, [1′-(1H-Benzotriazole-5-carbonyl)-[4,4′]bipiperidinyl-1-yl]-(4′-methyl-biphenyl-2-yl)-methanone]	< 1 µM
O=C(NCCc1ccccn1)C1CC(=O)N(C2CCN(C(=O)OCc3cc(Cl)cc(Cl)c3)CC2)C1 (stereo not shown) [Compound 17, 4-[2-Oxo-4-(2-pyridin-2-yl-ethylcarbamoyl)-pyrrolidin-1-yl]-piperidine-1-carboxylic acid 3,5-dichloro-benzyl ester]	< 10 µM

Further lines, results first:

IC50	Structure (SMILES)
< 1 µM	O=C(OCc1cccc(OC(F)(F)F)c1)N1CCN(C2CCN(C(=O)c3ccc4[nH]nnc4c3)CC2)CC1 [Compound 128, 4-[1-(1H-Benzotriazole-5-carbonyl)-piperidin-4-yl]-piperazine-1-carboxylic acid 3-trifluoromethoxy-benzyl ester]
< 1 µM	O=C(OC1(c2cc(C(F)(F)F)cc(C(F)(F)F)c2)CC1)N1CCN(C2CCN(C(=O)c3ccc4[nH]nnc4c3)CC2)CC1 [Compound 178, 4-[1-(1H-Benzotriazole-5-carbonyl)-piperidin-4-yl]-piperazine-1-carboxylic acid 1-(3,5-bis-trifluoromethyl-phenyl)-cyclopropyl ester]
< 30 µM	O=C(NC1CCC(N2CCN(C(=O)OCc3ccccc3)CC2)CC1)c1ccc2[nH]nnc2c1 (stereo not shown) [Compound 185, 4-{4-[(1H-Benzotriazole-5-carbonyl)-amino]-cyclohexyl}-piperazine-1-carboxylic acid benzyl ester]
< 1 µM	O=C(OCc1ccc(C(F)(F)F)cc1)N1CCN(C2CCN(C(=O)c3ccc4[nH]nnc4c3)CC2)CC1 [Compound 34, 4-[1-(1H-Benzotriazole-5-carbonyl)-piperidin-4-yl]-piperazine-1-carboxylic acid 4-trifluoromethyl-benzyl ester]
< 1 µM	O=C(OCc1cc(F)c(F)c(C(F)(F)F)c1)N1CCN(C2CCN(C(=O)c3ccc4[nH]nnc4c3)CC2)CC1 [Compound 165, 4-[1-(1H-Benzotriazole-5-carbonyl)-piperidin-4-yl]-piperazine-1-carboxylic acid 3,4-difluoro-5-trifluoromethyl-benzyl ester]
< 1 µM	O=C(NC1CCC(N2CCN(C(=O)OCc3cc(C(F)(F)F)cc(C(F)(F)F)c3)CC2)CC1)c1ccc2[nH]nnc2c1 (stereo not shown) [Compound 186, 4-{4-[(1H-Benzotriazole-5-carbonyl)-amino]-cyclohexyl}-piperazine-1-carboxylic acid 3,5-bis-trifluoromethyl-benzyl ester]
< 1 µM	O=C(OCc1cccc(C(F)(F)F)c1)N1CCN(C2CCN(C(=O)c3ccc4[nH]nnc4c3)CC2)CC1 [Compound 115, 4-[1-(1H-Benzotriazole-5-carbonyl)-piperidin-4-yl]-piperaizne-1-carboxylic acid 3-trifluoromethyl-benzyl ester]
< 10 µM	O=C(OCc1cc(C(F)(F)F)cc(C(F)(F)F)c1)N1CCN(C2CCN(S(=O)(=O)c3ccc4[nH]c(=O)sc4c3)CC2)CC1 [Compound 153, 4-[1-(2-Oxo-2,3-dihydro-benzothiazole-6-sulfonyl)-piperidin-4-yl]-piperazine-1-carboxylic acid 3,5-bis-trifluoromethyl-benzyl ester]
< 1 µM	O=C(OCc1cc(C(F)(F)F)cc(C(F)(F)F)c1)N1CCN(C2CCN(C(=O)c3ccc4[nH]c(=S)[nH]c4c3)CC2)CC1 [Compound 161, 4-[1-(2-Thioxo-2,3-dihydro-1H-benzoimidazole-5-carbonyl)-piperidin-4-yl]-piperazine-1-carboxylic acid 3,5-bis-trifluoromethyl-benzyl ester]
< 1 µM	O=C(Cc1ccc2[nH]nnc2c1)N1CCC(N2CCN(C(=O)OCc3cc(C(F)(F)F)cc(C(F)(F)F)c3)CC2)CC1 [Compound 139, 4-[1-(2-1H-Benzotriazol-5-yl-acetyl)-piperidin-4-yl]-piperazine-1-carboxylic acid 3,5-bis-trifluoromethyl-benzyl ester]
